The values below come from US7530461B2, “Esters of 5-aminolevulinic acid as photosensitizing agents in photochemotherapy” (PhotoCure ASA, priority 1995, dated 2009).

The subject of series [1] is BCC lesions and surrounding normal skin. The experiment in a line: PpIX production in human BCC and surrounding normal skin by CCD microscopy of biopsies. The format is in vivo. The method, then: […] After removal of dressings and cream in vivo fluorescence was measured at the surface of tumor tissue and adjacent normal skin by means of a spectrofluorometer. Punch biopsies of the same areas were removed and samples were immediately immersed in liquid nitrogen. The tissue sections were cut with a cryostat microtome to a thickness of 8 μm. The localization pattern of the porphyrin fluorescence in the tissue sections was directly observed by means of fluorescence microscopy. The same frozen sections were subsequently stained with routine H&E staining for histological identification.
The same sections were subsequently stained with routine H&E staining for histological identification. Fluorescence microscopy was carried out with an Axioplan microscope (Zeiss, Germany). Fluorescence images and quantitative measurements were performed by a light-sensitive thermol-electrically cooled charge coupled device (CCD) camera (Astromed CCD 3200, Cambridge, UK) and an image processing unit (Astromed/Visilog, PC 486DX2 66 MHz VL). The main purpose for such quantitative measurements is to determine the exact penetration of ALA-induced porphyrins from tissue surface to the bottom layers of cancer lesions. The results are shown in FIGS. 8 and 9 in which the fluorescence intensity is expressed as a function of depth of cancer lesion.
The tests were performed as described in Example 11.
Each of the following figures show both (A) fluorescence images of either the bottom layer of BCC lesions or of the surrounding normal skin. Curves indicating the fluorescence intensity as a function of depth of the BCC lesions or of the normal skin are also shown (B).

The subject of series [2] is normal skin of nu/nu nude mice. As to the kind of experiment: Protoporphyrin IX production in the skin of mice by CCD microscopy of biopsies. It counts as in vivo. Particulars: 20% w/w cream. The method, then:
A commercial oil-in-water cream containing (20% w/w) one of the chemicals (free ALA, ALA methylester, ALA ethylester and ALA propylester) (see Example 1) was topically applied to the normal skin of nu/nu nude mice for 0.5, 1, 3 and 6 hours, then biopsied and evaluated by means of microscopic fluorescence photometry incorporating a light-sensitive thermol-electrically cooled charge coupled device (CCD) camera. […] The fluorescence intensity of PpIX in the skin increased with the time of the application and the maximum amounts of the fluorescence were seen about 6 hours (the latest time point studied) after the application in all cases.

Series [3] deals with basal cell carcinoma (BCC) lesions and surrounding normal skin. The experiment in a line: PpIX fluorescence in human BCC and surrounding normal skin by optical-fiber based system. The format is in vivo. The method, then:
The PpIX fluorescence in the BCC lesions and surrounding normal skin of human patients was measured in situ by optical-fiber based system after topical application of 20% free ALA and its derivatives for various time intervals.
The PpIX fluorescence ratios between BCC lesions and surrounding normal skin after topical application of ALA or its esters (20% for 4 hours), was examined using methods described in previous examples.

The subject of series [4] is BCC lesions and adjacent normal skin. The experiment in a line: In vivo surface fluorescence of tumor tissue and adjacent normal skin by spectrofluorometer. Particulars: after 24 hours, surface measurement. Also on record: species or system human. The method, then:
In a person presenting multiple ulcero-nodular BCCs lesions were exposed to commercial oil-in-water creams containing either ALA alone (20 k w/w) or ALA methyl ester (20% w/w) (as described in Example 7) covered by a semi-permeable dressing for 24 hours. After removal of dressings and cream in vivo fluorescence was measured at the surface of tumor tissue and adjacent normal skin by means of a spectrofluorometer. Punch biopsies of the same areas were removed and samples were immediately immersed in liquid nitrogen. The tissue sections were cut with a cryostat microtome to a thickness of 8 μm. The localization pattern of the porphyrin fluorescence in the tissue sections was directly observed by means of fluorescence microscopy. The same frozen sections were subsequently stained with routine H&E staining for histological identification.

Series [5] concerns WiDr human colonic carcinoma. As to the kind of experiment: PDT effect on tumor growth in WiDr human colonic carcinoma-transplanted nude mice. Particulars: with DF and DMSO. The format is in vivo. The method, then:
Nude mice were transplanted with WiDr human colonic carcinoma cells by subcutaneous injection into the right flank region. […] The responses of the treated tumors were evaluated as tumor regression/regrowth time. When the tumors reached a volume 5 times that of the volume on the day of light irradiation, the mice were killed. (Bars: standard error of mean (SEM) based on 3-5 individual animals in each group).

The test system of series [6] is normal skin of nude mice. The experiment in a line: In situ measurement of PpIX fluorescence in the skin of mice by an optical-fiber-based system. The format is in vivo. As to conditions: intraperitoneal injection, 150 mg/kg.
Series [7] concerns normal skin of nude mice. As to the kind of experiment: Fluorescence microscopy of mouse skin biopsies after topical application. It counts as in vivo. Particulars: 1 h after topical application. The method, then:
Treatment procedure. One of the creams was painted on the normal skin at right flank region of each mouse, and covered by a semi-permeable dressing (3M, St Paul, Minn., USA) for various time intervals (from 0.25 to 24 h) before fluorescence measurements in situ or being biopsied for microscopic fluorescence imaging. About 0.2 g cream was applied to an approximate 2.25 cm^2 area of the skin. In the case of i.p. injection the mice were given ALA or its methylester at a dose of 150 mg/kg. At least three mice were used for each condition.
Fluorescence microscopy. After the creams were topically applied to the skin of mice for various times (as indicated above), the skin was biopsied and the frozen tissue sections were cut with a cryostat to a thickness of 8 μm. The fluorescence microscopy was carried out using an Axioplan microscope (Zeiss, Germany) with a 100 W mercury lamp. The fluorescence images were recorded by a light-sensitive thermoelectrically cooled charge coupled device (CCD) camera (resolution: 385×578 pixels with a dynamic range of 16 bits per pixel)(Astromed CCD 3200, Cambridge, UK) and hard copies on a video printer (Sony multiscan video printer UP-930). The filter combination used for detection of porphyrin fluorescence consisted of 390-440 nm excitation filter, a 460 nm beam splitter and a >600 nm emission filter.
II. […] The fluorescence intensity of the porphyrins increased with the time after the application.

The test system of series [8] is BCC lesions and adjacent normal skin. As to the kind of experiment: Control one week after treatment (cream and light irradiation) of BCC patient. It counts as in vivo, human.
The mark [9] stands for this setting: topical application for 4.5 hours.
[10] abbreviates: topical application for 24 hours.

`COC(=O)CCC(=O)CN.Cl` [ALA methylester, methyl 5-aminolevulinate hydrochloride]: the “PpIX fluorescence in the surrounding normal skin” value in series [1] (20% w/w cream, 24 hours) is recorded as “no PpIX fluorescence was seen in the surrounding normal skin”. Moreover, the “distribution of PpIX fluorescence from top to bottom of BCC lesions” value in series [1] (20% w/w cream, 24 hours, patient) is “homogeneous distribution of PpIX fluorescence”. Further, in series [1] (setting [9]), the “distribution of porphyrin fluorescence in the bottom layer of BCC” value was “homogenous distribution”; the “fluorescence intensity ratio between BCC and normal skin” value was “about 2”; the “porphyrin fluorescence/production in BCC, ALA methyl ester versus free ALA and 20% DMSO” value was “higher than that induced by free ALA and 20% DMSO”. In addition, in series [1] (setting [10]), the “distribution of porphyrin fluorescence in the bottom layer of BCC and surrounding normal skin” value is listed as “uniform distribution”; the “fluorescence intensity ratio between BCC and normal skin” value is recorded as “about 2”; the “porphyrin fluorescence/production in BCC, ALA methyl ester versus free ALA alone” value is “almost twice as high”. Moreover, in series [2] (normal skin of nu/nu nude mice), the “time after topical application at which conversion into protoporphyrin IX (PpIX) is seen” value came out at 0.5 h. Moreover, the “time of maximum PpIX fluorescence after application” value in series [2] (topical, 6 hours was the latest time point studied) is recorded as “about 6 hours”. Further, the “PpIX fluorescence ratios between BCC lesions and surrounding normal skin (selectivity) compared with free ALA” value in series [3] (20% for 4 hours, topical) is listed as “more selectively induce PpIX in BCC lesions than free ALA”. Further, the “PpIX build-up, amount and localization in BCC lesions compared to free ALA” value in series [3] (20% topical, various time intervals, human patients) was “built up faster, produced more and localized more selectively in the BCC lesions”. Further, in series [4], the “in vivo fluorescence intensity in tumors compared to ALA” value was “at least doubled fluorescence intensity” and the “increase of in vivo fluorescence in corresponding normal tissues compared to ALA” value is “about 50%”. For the same compound, in series [5], the “slowing of tumor regrowth compared with ALA” value is on record as “more effective than ALA in slowing tumor regrowth”. In series [6], the “decrease of skin fluorescence compared with free ALA” value is “the fluorescence decreased faster in the case of the ester than in the case of the free ALA”, the “time at which PpIX fluorescence disappeared post injection” value was not above 10 h, the “time at which PpIX fluorescence in the skin was built up after injection” value is 15 min and the “time of peak PpIX fluorescence in the skin after injection” value was “around 4 hours”. Also, the “localization of porphyrin fluorescence in mouse skin” value in series [7] is “fluorescence in the epidermis (Ep), epithelial hair follicles and sebaceous gland (arrows), but not in the dermis (De)”. Moreover, in series [8], the “erythema in adjacent normal skin exposed to cream and light irradiation” value is on record as “only moderate erythema”; the “tumor response in treatment fields” value is on record as “central necrotic area corresponding to the tumor”.
